Data from US10364263B2, “Cyclic phosphates and cyclic phosphoramidates for the treatment of neurologic disorders” (Retrophin, Inc., priority 2015, dated 2019).

Key:
physchem = settings: buffer, phosphate buffered saline, 10 mM phosphate buffer pH 7.5, 37° C.
Protocol: (§2) To measure chemical stability in aqueous solution, the half-life (t1/2), or time needed for the concentration to decrease by half, was determined for select compounds in phosphate buffered saline solution. Compounds were dissolved in a solution containing 10 mM phosphate buffer (pH 7.5) and 5% of D2O to a final concentration of −1 mM. All spectra were obtained at 37° C. on a Bruker Avance 600 NMR spectrometer equipped with an inverse broad-band probe with z-gradients. Data were obtained every 15 min for a total time period of 4 h or longer, according to the observed stability. ^31P NMR was performed at 242.55 MHz, with gated decoupling of the protons. An observation frequency range of 14619.9 Hz and 32 K complex data points were used for acquisition. A pulse angle of 90° and a 4-sec pulse cycle were utilized. Thirty-two accumulations were obtained before Fourier transformation of the free induction decay. ^1H NMR spectra were acquired using the 1DNOESY experiment with water presaturation for better solvent suppression. An observation frequency range of 12019.23 Hz, a 10-sec pulse cycle, and 32 K complex data points were used for acquisition. Sixty-four scans were added prior to Fourier transformation. Integral data were obtained using the TopSpin software.
(§3) Stability was determined based on analysis of disappearance of the compounds as a function of incubation time. Quantification of test compounds was measured as a peak area relative to an internal standard. The elimination constant, k, was calculated by plotting mean disappearance values on a semi-logarithmic scale and fitting with a best fit linear regression. The half-life (t1/2) expressed in hours was derived using Equation 1: t1/2=ln2/(−k). Equation 1:

[1] = test system: PANK2 silenced human neuroblastoma IMR32 cells (PANK2−/−); assay: Coenzyme A assay in PANK2 silenced cells (LC-MS quantification of free CoA); format: cell-based; settings: compound added twice (24 h + 24 h), relative to 0.1% DMSO controls
Procedure, shortened: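 PANK2 shRNA-silenced IMR32 neuroblastoma cells were treated with compound (0.1% DMSO) for 24 h, then re-dosed with fresh compound for a further 24 h at 37 °C. TFA extracts of 1×10^6 cells were assayed for free CoA by LC-MS/MS (MRM 768.1→261.6/136.1). Results are given as fold change versus DMSO controls.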

[2] = Stability in mouse hepatocytes; format: in vitro ADME
[3] = Chemical stability in aqueous solution (phosphate buffered saline, NMR)
Protocol: as §2, §3

[4] = Stability in human hepatocytes; format: in vitro ADME; settings: for half-life at 5 µM: t1/2, Human Hepatocytes; for half-life: Diastereoisomer A (upfield shift in 31P NMR), 5 μM, 1 million cells/ml, 37° C., human hepatocytes, read-out: t1/2, Human Hepatocytes, Diastereoisomer A (converted)
[5] = Stability in human plasma; format: in vitro ADME; settings: human, plasma, 37° C.
Procedure, shortened: (§1)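 Test compound at 3 μM (0.1% DMSO) was incubated in mouse or human plasma at 37 °C and sampled in duplicate at 0, 10, 20, 30, 40 and 60 min. Reactions were stopped with acetonitrile/formic acid containing internal standard. Remaining parent was measured by UPLC-MS/MS without a calibration curve.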

[6] = Stability in mouse plasma; format: in vitro ADME; settings: mouse, plasma; for t1/2, Mouse Plasma, Diastereoisomer B: 3 µM
Procedure, shortened: as §1

[7] = Permeability in porcine brain endothelial cell blood-brain barrier model; format: in vitro ADME; settings: pig (endothelial cells), co-cultured with rat astrocytes, pH 7.4, PBECs/As blood-brain barrier model, luminal to basal; Diastereoisomer A; read-out: Papp Diastereoisomer A
Source text: Compounds disclosed herein show the potential to reach mammalian brain by crossing the blood-brain barrier (BBB) from systemic circulation. […] The porcine brain endothelial cell permeability assay is an in vitro BBB model to be used for the prediction of central nervous system (CNS) drug permeability in vivo and for ranking or prioritization of compounds according to their permeability. This system can also be used for mechanistic studies and drug delivery strategies via receptor-mediated transport (transcytosis). The system is a two-dimensional co-culture, non-contact model of two types of primary cells: primary brain endothelial cells obtained from fresh porcine brains, and primary rat astrocytes, obtained from neonatal rats. This ensures barrier formation and functional expression of key transporters.
The endothelial cells were cultured on rat-tail collagen type I and human fibronectin coated Transwell polycarbonate inserts (surface area 0.7 cm^2; pore size 0.4 μm) and the inserts were placed in 24-well plates containing confluent rat astrocytes. This system allows for the formation of a differentiated BBB model suitable for compound permeability in 10 days.
On the day of the experiment, culture medium was removed and cells were pre-incubated for 30 min with HBSS containing 20 mM Hepes pH 7.4 and 0.1% BSA. Donor volume (apical) was 400 μl and receiver volume (basal) 900 μl. Compounds were diluted in assay medium (at the desired concentration) and added to the luminal side (to mimic blood to brain passage). Transport was measured usually after 60 min by detecting the amount of compound from the basal (brain side). The integrity of the cell layers was assessed by measuring the transendothelial electrical resistance (TEER) and by monitoring FITC-dextran (40 KDa) permeation. Inserts with TEER values […] were selected for permeability studies. As FITC-dextran cannot freely permeate lipophilic barriers, a high degree of FITC-dextran transport indicates poor integrity of the cell layer and wells with high FITC-dextran permeability were excluded. FITC-dextran was included as internal control in each insert used for permeability studies. Fluorescence was measured using a fluorimetric detector. Radioactivity was measured by scintillation counting. For LC-MS/MS analysis, aliquots (200 μl) from the basal compartment were diluted with an equal volume of 100% acetonitrile containing 0.1% formic acid, centrifuged to remove cell debris, and evaporated under N2. After reconstitution, samples were analyzed by LC-MS/MS. Mass balance was determined considering the amount of compound recovered in the donor and receiver chamber at the end of the assay relative to the amount added to the donor chamber at time 0.
Permeability was defined as the apparent permeability coefficient (Papp), which is a measure of the appearance rate of the compound in the receiver chamber, expressed in cm/s. Papp is calculated according the following equation: Papp[cm/sec]=Vd*ΔMr/A*Md*Δt, Equation 2: where
Vd=volume in the donor compartment in cm^3 or mL;
ΔMr=total amount of compound in the receiver compartment after t seconds;
Md=donor amount (added at time 0)
Δt=time measured in seconds
A=filter area in cm^2 (for 24 well plate, A=0.7 cm^2).
To correct for the contribution of filter and substrate, Papp was also determined for the cell-free system. Permeability of the endothelial cell layer was determined using the following equation: […], Equation 3: where
Ptotal=the P of the total system,
Pf=P for the cell-free filter, and
Pe=P for the endothelial cell layer alone. In this equation, the total resistance of the system towards passage of a substance is additively composed of two […] resistances: that of the cell monolayer and that of the filter.

[8] = pH 7.5, t1/2 (h) Diastereoisomer A, Diastereoisomer A = upfield shift in the 31P NMR
[9] = pH 7.5, t1/2 (h) Diastereoisomer B, Diastereoisomer B
[10] = t1/2, Mouse Hepatocytes, Diastereoisomer A
[11] = t1/2, Mouse Hepatocytes, Diastereoisomer B
[12] = pH 7.5, t1/2 (h) Diastereoisomer A, 10 mM phosphate buffer pH 7.5, 37° C., Diastereoisomer A = upfield shift in the 31P NMR
[13] = pH 7.5, t1/2 (h) Diastereoisomer B, 10 mM phosphate buffer pH 7.5, 37° C., Diastereoisomer B
[14] = Diastereoisomer A (upfield shift in 31P NMR), read-out: t1/2, Human Plasma, Diastereoisomer A (converted)
[15] = Diastereoisomer B, read-out: t1/2, Human Plasma, Diastereoisomer B (converted)
[16] = Diastereoisomer A (upfield shift in 31P NMR), 5 μM, 1 million cells/ml, 37° C., mouse hepatocytes, read-out: t1/2, Mouse Hepatocytes, Diastereoisomer A (converted)

half-life at 5 µM [2, 10] | half-life at 1 mM [3, 12] | half-life at 1 mM [3, 13] | half-life at 5 µM ([4]; Diastereoisomer A) | SMILES | half-life (physchem; [8]) | PANK2−/− CoA (Fold Increase): fold increase in Coenzyme A (CoA) levels relative to controls [1] | further results
– | – | – | – | COC(=O)CCNC(=O)[C@@H]1OP(=O)(NCC2CCCO2)OCC1(C)C (stereo partly drawn) [compound 116, methyl 3-((4R)-5,5-dimethyl-2-oxido-2-(((tetrahydrofuran-2-yl)methyl)amino)-1,3,2-dioxaphosphinane-4-carboxamido)propanoate] | > 2400 min | – | half-life (physchem; [9]): > 2400 min
20.4 min | 4800 min | 360 min | 173 min | COC(=O)CCNC(=O)[C@H](O)C(C)(C)COP1(=O)OCC(C)(C)[C@H](C(=O)NCCC(=O)OC)O1 (stereo partly drawn) [compound 59, methyl 3-((2R)-2-hydroxy-4-(((4R)-4-((3-methoxy-3-oxopropyl)carbamoyl)-5,5-dimethyl-2-oxido-1,3,2-dioxaphosphuian-2-yl)oxy)-3,3-dimethylbutanamido) propanoate] | – | 1.52 Fold Increase | half-life at 5 µM [2, 11]: < 15 min; half-life at 5 µM ([4]; Diastereoisomer B): 92.4 min
– | – | – | – | COC(=O)CCNC(=O)[C@@H]1OP(N)(=O)OCC1(C)C (stereo partly drawn) [compound 114, methyl 3-((4R)-2-amino-5,5-dimethyl-2-oxido-1,3,2-dioxaphosphinane-4-carboxamido)propanoate] | > 2400 min | – | half-life (physchem; [9]): > 2400 min
– | 1410 min | 306 min | – | COC(=O)CCNC(=O)[C@@H]1OP(=O)(OCCCN2CCOCC2)OCC1(C)C (stereo partly drawn) [compound 52, methyl 3-((4R)-5,5-dimethyl-2-(3-morpholinopropoxy)-2-oxido-1,3,2-dioxaphosphinane-4-carboxamido)propanoate] | – | 1.58 Fold Increase | half-life at 3 µM [5, 14]: > 60 min; half-life at 3 µM [5, 15]: > 60 min; half-life at 3 µM [6]: < 9.6 min; t1/2, Mouse Plasma, Diastereoisomer B [6]: <9.6 min
– | > 4800 min | – | – | COC(=O)CCNC(=O)[C@@H]1O[P@@](=O)(OCCC(C)C)OCC1(C)C [compound 50, methyl 3-((2S,4R)-2-(isopentyloxy)-5,5-dimethyl-2-oxido-1,3,2-dioxaphosphinane-4-carboxamido)propanoate] | – | – | –
– | – | – | – | COC(=O)CCNC(=O)[C@@H]1O[P@@](OCCc2ccccc2)OCC1(C)C [compound 58, methyl 3-((2S,4R)-5,5-dimethyl-2-phenethoxy-1,3,2-dioxaphosphinane-4-carboxamido)propanoate] | – | – | half-life at 1 mM ([3]; pH 7.5): > 4800 min
22.2 min | 282 min | 222 min | 75.6 min | COC(=O)[C@H](C)NP1(=O)OCC(C)(C)[C@H](C(=O)NCCC(=O)OCCN2CCCC2)O1 (stereo partly drawn) [compound 19, methyl ((4R)-5,5-dimethyl-2-oxido-4-((3-oxo-3-(2-(pyrrolidin-1-yl)ethoxy)propyl)carbamoyl)-1,3,2-dioxaphosphinan-2-yl)-L-alaninate] | – | 1.73 Fold Increase | half-life at 3 µM [5, 14]: 27 min; half-life at 3 µM [5, 15]: > 60 min; half-life at 5 µM [2, 11]: 18.6 min; half-life at 5 µM ([4]; Diastereoisomer B): 69.6 min; half-life at 3 µM [6]: < 9.6 min; t1/2, Mouse Plasma, Diastereoisomer B [6]: <9.6 min
– | – | – | – | COC(=O)CCNC(=O)[C@@H]1OP(=O)(O)OCC1(C)C [compound 55, methyl 3-((4R)-2-hydroxy-5,5-dimethyl-2-oxido-1,3,2-dioxaphosphinane-4-carboxamido)propanoate] | – | 1.92 Fold Increase | half-life at 1 mM ([3]; pH 7.5, t1/2 (h), pH 7.5, 37° C., compound not chiral at phosphorous, one value spanning both columns): > 3600 min
16.8 min | > 4800 min | > 4800 min | 34.2 min | COC(=O)CCNC(=O)[C@@H]1OP(=O)(OCCCOCc2ccccc2)OCC1(C)C (stereo partly drawn) [compound 53, methyl 3-((4R)-2-(3-(benzyloxy)propoxy)-5,5-dimethyl-2-oxido-1,3,2-dioxaphosphinane-4-carboxamido)propanoate] | – | – | half-life at 5 µM [2, 11]: < 15 min; half-life at 5 µM ([4]; Diastereoisomer B): < 15 min
– | – | – | – | COC(=O)CCNC(=O)[C@@H]1O[P@@](=O)(NCc2ccccc2)OCC1(C)C [Compound No. 115, Methyl 3-((2R,4R)-2-(benzylamino)-5,5-dimethyl-2-oxido-1,3,2-dioxaphosphinane-4-carboxamido)propanoate] | > 3600 min | – | Papp A→B at 60 min [7]: 4.03 ×10⁻⁶ cm/s; half-life at 5 µM [2, 16]: < 15 min; half-life [4]: 38.4 min
– | – | – | – | CCC(CC)COC(=O)[C@H](C)NP1(=O)OCC(C)(C)[C@H](C(=O)NCCC(=O)OC)O1 (stereo partly drawn) [compound 7, 2-ethylbutyl ((4R)-4-((3-methoxy-3-oxopropyl)carbamoyl)-5,5-dimethyl-2-oxido-1,3,2-dioxaphosphinan-2-yl)-L-alaninate] | > 2400 min | 1.56 Fold Increase | –
< 15 min | 276 min | – | < 15 min | COC(=O)CCNC(=O)[C@@H]1O[P@@](=O)(OCc2ccccc2)OCC1(C)C [compound 56, methyl 3-((2S,4R)-2-(benzyloxy)-5,5-dimethyl-2-oxido-1,3,2-dioxaphosphinane-4-carboxamido)propanoate] | – | – | Papp A→B at 60 min [7]: 18.7 ×10⁻⁶ cm/s
– | – | – | – | COC(=O)CCNC(=O)[C@@H]1OP(=O)(N[C@H]2CN[C@@H](C(=O)OC)C2)OCC1(C)C (stereo partly drawn) [compound 132, methyl (2R,4R)-4-(((4R)-4-((3-methoxy-3-oxopropyl)carbamoyl)-5,5-dimethyl-2-oxido-1,3,2-dioxaphosphinan-2-yl)amino) pyrrolidine-2-carboxylate] | 288 min | 1.88 Fold Increase | half-life at 5 µM [2, 16]: 54.6 min; half-life [4]: 143 min; half-life (physchem; [9]): 216 min
